Test results reported in ChEMBL document CHEMBL3779861, “Selective Inhibition of CBX6: A Methyllysine Reader Protein in the Polycomb Family” (ACS Med Chem Lett, 2016).
Blank lines part the entries; values can stand above or below the molecule they belong to. Non-standard residues stand in square brackets, D forms with d. Residues, ends and D or L forms follow the SMILES beside them. *: point of attachment. X1 = O=C(O)c1cc(NC(=S)*)ccc1-c1c2ccc(=O)cc-2oc2cc(O)ccc12; Biotin = O=C1N[C@H]2[C@H](CS[C@H]2CCCCC(=O)*)N1; Lys(Me3) = C[N+](C)(C)CCCC[C@H](N)C(=O)O; Benzoyl(4-Br) = O=C(c1ccc(Br)cc1)*; Abu = CC[C@H](N)C(=O)O

Key:
[1] = molecular target: T1, Chromobox protein homolog 7 (Homo sapiens, UniProt O95931); test: Binding affinity to N-terminal His6-tagged human CBX7 (8 to 62) expressed in Escherichia coli BL21 using FITC-peptide-3 as competitive binding probe by fluorescence polarization assay
T1 sequence (O95931 whole entry): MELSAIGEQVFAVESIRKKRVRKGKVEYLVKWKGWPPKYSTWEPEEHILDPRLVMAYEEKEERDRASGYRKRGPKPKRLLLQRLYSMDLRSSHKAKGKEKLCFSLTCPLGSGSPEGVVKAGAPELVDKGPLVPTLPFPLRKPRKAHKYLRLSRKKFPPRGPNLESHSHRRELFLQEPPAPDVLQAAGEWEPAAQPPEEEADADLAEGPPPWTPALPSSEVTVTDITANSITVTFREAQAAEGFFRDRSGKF

[2] = molecular target: Chromobox protein homolog 1 (Homo sapiens, UniProt P83916)
[3] = molecular target: T2, Chromobox protein homolog 2 (Homo sapiens, UniProt Q14781); test: Binding affinity to N-terminal His6-tagged human CBX2 (8 to 62) expressed in Escherichia coli BL21 using FITC-peptide-3 as competitive binding probe by fluorescence polarization assay
T2 sequence (Q14781 whole entry): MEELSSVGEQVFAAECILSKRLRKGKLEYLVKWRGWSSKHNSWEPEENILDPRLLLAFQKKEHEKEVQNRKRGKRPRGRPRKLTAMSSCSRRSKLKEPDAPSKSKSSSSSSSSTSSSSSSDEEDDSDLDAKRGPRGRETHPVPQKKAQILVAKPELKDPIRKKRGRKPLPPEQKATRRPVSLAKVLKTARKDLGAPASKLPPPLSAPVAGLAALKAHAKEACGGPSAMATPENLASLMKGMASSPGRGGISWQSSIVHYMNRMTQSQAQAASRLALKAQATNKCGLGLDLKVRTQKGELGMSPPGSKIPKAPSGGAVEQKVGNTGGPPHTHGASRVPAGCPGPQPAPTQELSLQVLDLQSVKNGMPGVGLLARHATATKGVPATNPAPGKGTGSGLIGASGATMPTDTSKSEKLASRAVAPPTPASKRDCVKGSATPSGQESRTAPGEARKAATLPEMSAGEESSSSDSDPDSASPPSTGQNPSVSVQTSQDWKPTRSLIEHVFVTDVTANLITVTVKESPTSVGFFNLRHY

[4] = molecular target: T3, E3 SUMO-protein ligase CBX4 (Homo sapiens, UniProt O00257); test: Binding affinity to N-terminal His6-tagged human CBX4 (8 to 65 residues) expressed in Escherichia coli BL21 using FITC-peptide-3 as competitive binding probe by fluorescence polarization assay
T3 sequence (O00257 whole entry): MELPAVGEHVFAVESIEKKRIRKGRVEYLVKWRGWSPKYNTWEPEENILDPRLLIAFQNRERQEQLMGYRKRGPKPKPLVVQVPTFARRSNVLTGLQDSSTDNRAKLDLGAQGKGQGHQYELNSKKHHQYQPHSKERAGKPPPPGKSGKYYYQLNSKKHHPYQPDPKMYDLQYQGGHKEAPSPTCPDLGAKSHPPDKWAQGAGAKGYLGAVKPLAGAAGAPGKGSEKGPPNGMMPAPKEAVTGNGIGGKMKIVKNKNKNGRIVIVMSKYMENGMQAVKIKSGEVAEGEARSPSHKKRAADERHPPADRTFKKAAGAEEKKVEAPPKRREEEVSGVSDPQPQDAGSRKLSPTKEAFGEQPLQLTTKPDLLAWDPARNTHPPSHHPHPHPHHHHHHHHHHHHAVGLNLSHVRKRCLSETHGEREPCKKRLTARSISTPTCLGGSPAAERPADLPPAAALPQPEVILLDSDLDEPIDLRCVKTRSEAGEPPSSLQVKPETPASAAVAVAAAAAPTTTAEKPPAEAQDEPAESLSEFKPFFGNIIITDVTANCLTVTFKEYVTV

[5] = molecular target: T4, Chromobox protein homolog 6 (Homo sapiens, UniProt O95503); test: Binding affinity to N-terminal His6-tagged human CBX6 (8 to 65 residues) expressed in Escherichia coli BL21 using FITC-peptide-3 as competitive binding probe by fluorescence polarization assay
T4 sequence (O95503 whole entry): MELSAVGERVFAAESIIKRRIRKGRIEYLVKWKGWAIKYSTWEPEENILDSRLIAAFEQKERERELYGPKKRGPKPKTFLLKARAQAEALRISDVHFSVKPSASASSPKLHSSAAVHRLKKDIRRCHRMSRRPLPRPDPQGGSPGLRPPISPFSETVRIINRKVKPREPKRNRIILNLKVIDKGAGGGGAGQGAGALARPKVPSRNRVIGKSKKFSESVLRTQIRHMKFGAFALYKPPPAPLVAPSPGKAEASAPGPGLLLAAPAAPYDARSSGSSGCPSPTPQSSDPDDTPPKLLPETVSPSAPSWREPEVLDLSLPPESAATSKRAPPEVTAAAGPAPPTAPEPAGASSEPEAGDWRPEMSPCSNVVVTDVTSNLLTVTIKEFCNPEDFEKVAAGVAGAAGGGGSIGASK

[6] = molecular target: T5, Chromobox protein homolog 8 (Homo sapiens, UniProt Q9HC52); test: Binding affinity to N-terminal His6-tagged human CBX8 (8 to 61 residues) expressed in Escherichia coli BL21 using FITC-peptide-3 as competitive binding probe by fluorescence polarization assay
T5 sequence (Q9HC52 whole entry): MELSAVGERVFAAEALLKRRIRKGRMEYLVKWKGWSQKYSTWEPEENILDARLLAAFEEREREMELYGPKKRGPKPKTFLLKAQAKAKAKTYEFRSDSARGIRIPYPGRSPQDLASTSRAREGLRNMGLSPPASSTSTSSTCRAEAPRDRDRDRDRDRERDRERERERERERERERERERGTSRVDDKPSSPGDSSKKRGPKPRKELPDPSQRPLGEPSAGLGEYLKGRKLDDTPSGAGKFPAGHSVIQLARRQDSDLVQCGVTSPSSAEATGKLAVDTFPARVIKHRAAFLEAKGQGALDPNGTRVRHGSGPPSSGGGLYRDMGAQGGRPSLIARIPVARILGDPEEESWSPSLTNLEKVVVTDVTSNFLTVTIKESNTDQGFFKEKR

[7] = molecular target: T4, Chromobox protein homolog 6; test: Binding affinity to N-terminal His6-tagged human CBX6 (8 to 65 residues) expressed in Escherichia coli BL21 by surface plasmon resonance assay
[8] = molecular target: T1, Chromobox protein homolog 7; test: Binding affinity to N-terminal His6-tagged human CBX7 (8 to 62 residues) expressed in Escherichia coli BL21 by surface plasmon resonance assay
[9] = molecular target: Chromobox protein homolog 7 (Homo sapiens, UniProt O95931, V13A); test: Binding affinity to human CBX7 V13A mutant expressed in Escherichia coli BL21 by surface plasmon resonance assay
Chromobox protein homolog 7 (Homo sapiens, UniProt O95931, V13A), sequence (O95931 whole entry V13A): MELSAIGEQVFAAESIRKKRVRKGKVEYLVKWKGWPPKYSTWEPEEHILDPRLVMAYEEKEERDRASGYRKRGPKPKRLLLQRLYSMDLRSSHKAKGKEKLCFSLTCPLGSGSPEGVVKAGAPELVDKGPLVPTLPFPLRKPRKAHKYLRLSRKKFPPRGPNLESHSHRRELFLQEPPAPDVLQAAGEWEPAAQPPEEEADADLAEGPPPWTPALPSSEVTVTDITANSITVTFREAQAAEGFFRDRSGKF

Chromobox protein homolog 1, sequence (P83916 whole entry): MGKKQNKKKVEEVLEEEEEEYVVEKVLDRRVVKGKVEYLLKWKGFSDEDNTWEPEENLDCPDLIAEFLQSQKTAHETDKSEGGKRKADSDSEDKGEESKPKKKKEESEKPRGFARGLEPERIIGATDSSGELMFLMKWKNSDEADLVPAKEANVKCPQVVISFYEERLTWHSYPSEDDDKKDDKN

SMILES: C[C@H](NC(=O)[C@H](Cc1ccccc1)NC(=O)c1ccc(Br)cc1)C(=O)N[C@@H](Cc1ccc(O)cc1)C(=O)N[C@@H](CCCC[N+](C)(C)C)C(=O)N[C@@H](CO)C(N)=O ({Benzoyl(4-Br)}-FAY[Lys(Me3)]S-NH2)
IC50 [1]: 1.7 µM

SMILES: CC(C)[C@H](NC(=O)[C@H](Cc1ccccc1)NC(=O)c1ccc(Br)cc1)C(=O)N[C@@H](Cc1ccc(O)cc1)C(=O)N[C@@H](CCCC[N+](C)(C)C)C(=O)N[C@@H](CO)C(=O)N[C@@H](CCC(=O)O)C(=O)N[C@@H](CCCCNC(=O)CCCC[C@@H]1SC[C@@H]2NC(=O)N[C@@H]21)C(N)=O ({Benzoyl(4-Br)}-FVY[Lys(Me3)]SEK(Biotin)-NH2)
Kd [7]: 0.91 µM
Kd [8]: 34 µM
Kd [9]: 24 µM

SMILES: C[C@H](NC(=O)[C@H](Cc1ccccc1)NC(=O)c1ccc(Br)cc1)C(=O)N[C@@H](Cc1ccc(O)cc1)C(=O)N[C@@H](CCCC[N+](C)(C)C)C(=O)N[C@@H](CO)C(=O)N[C@@H](CCC(=O)O)C(=O)N[C@@H](CCCCNC(=O)CCCC[C@@H]1SC[C@@H]2NC(=O)N[C@@H]21)C(N)=O ({Benzoyl(4-Br)}-FAY[Lys(Me3)]SEK(Biotin)-NH2)
Kd [7]: 0.11 µM
Kd [8]: 0.16 µM
Kd [9]: 0.29 µM

SMILES: CC[C@H](NC(=O)[C@H](Cc1ccccc1)NC(=O)c1ccc(Br)cc1)C(=O)N[C@@H](Cc1ccc(O)cc1)C(=O)N[C@@H](CCCC[N+](C)(C)C)C(=O)N[C@@H](CO)C(=O)N[C@@H](CCC(=O)O)C(=O)N[C@@H](CCCCNC(=S)Nc1ccc(-c2c3ccc(=O)cc-3oc3cc(O)ccc23)c(C(=O)O)c1)C(N)=O ({Benzoyl(4-Br)}-F[Abu]Y[Lys(Me3)]SEK(X1)-NH2)
Kd [1]: 0.4 µM
Kd [2]: 75 µM
Kd [3]: 1.6 µM
Kd [4]: 0.8 µM
Kd [5]: 0.8 µM
Kd [6]: 1 µM

Other lines, results leading:

Kd [1]: 0.1 µM
Kd [2]: 5.5 µM
Kd [3]: 0.3 µM
Kd [4]: 0.2 µM
Kd [5]: 0.3 µM
Kd [6]: 1 µM
SMILES: C[C@H](NC(=O)[C@H](Cc1ccccc1)NC(=O)c1ccc(Br)cc1)C(=O)N[C@@H](Cc1ccc(O)cc1)C(=O)N[C@@H](CCCC[N+](C)(C)C)C(=O)N[C@@H](CO)C(=O)N[C@@H](CCC(=O)O)C(=O)N[C@@H](CCCCNC(=S)Nc1ccc(-c2c3ccc(=O)cc-3oc3cc(O)ccc23)c(C(=O)O)c1)C(N)=O ({Benzoyl(4-Br)}-FAY[Lys(Me3)]SEK(X1)-NH2)

Kd [1]: 5.3 µM
Kd [2]: 78.4 µM
Kd [3]: 17.6 µM
Kd [4]: 15.5 µM
Kd [5]: 0.9 µM
Kd [6]: 6 µM
SMILES: CC(C)[C@H](NC(=O)[C@H](Cc1ccccc1)NC(=O)c1ccc(Br)cc1)C(=O)N[C@@H](Cc1ccc(O)cc1)C(=O)N[C@@H](CCCC[N+](C)(C)C)C(=O)N[C@@H](CO)C(=O)N[C@@H](CCC(=O)O)C(=O)N[C@@H](CCCCNC(=S)Nc1ccc(-c2c3ccc(=O)cc-3oc3cc(O)ccc23)c(C(=O)O)c1)C(N)=O ({Benzoyl(4-Br)}-FVY[Lys(Me3)]SEK(X1)-NH2)
